Results published in the supplement of paper PMC13380429.

How the values were obtained:
[1] = test system: A549-ACE2 infected with SARS-CoV-2; assay: SARS-CoV-2 infection rate relative to DMSO; higher = more infection; conditions: 24 h
U2OS [2] = assay: drug sensitivity score (DSS) for viability; higher = more toxic; extreme values may be limits of the assay; conditions: 72 h
HepG2 [3] = assay: as above; conditions: 72 h
Vero E6 [4] = assay: as above; conditions: 72 h
Caco-2 [5] = assay: as above; conditions: 72 h
U2OS [6] = assay: relative viability EC50 (midpoint between 100% and the lowest measured viability); higher = less toxic; conditions: 72 h
HepG2 [7] = assay: as above; conditions: 72 h
Vero E6 [8] = assay: as above; conditions: 72 h
Caco-2 [9] = assay: as above; conditions: 72 h
A549-ACE2 [10] = assay: drug-induced phospholipidosis relative to tamoxifen; higher = more phospholipidosis
U2OS [11] = assay: cell viability relative to DMSO; higher = less toxic; conditions: 72 h
HepG2 [12] = assay: as above; conditions: 72 h
Vero E6 [13] = assay: as above; conditions: 72 h
Caco-2 [14] = assay: as above; conditions: 72 h
[15] = test system: A549-ACE2 infected with SARS-CoV-2; assay: morphology score (similarity to uninfected cells); higher = more like uninfected cells; conditions: 24 h
[16] = test system: A549-ACE2 infected with SARS-CoV-2; assay: cell count relative to DMSO; higher = less toxic; conditions: 24 h
Calu-3 [17] = assay: drug sensitivity score (DSS) for viability; higher = more toxic; extreme values may be limits of the assay; conditions: 72 h
A549-ACE2 [18] = assay: phospholipidosis EC50; higher = less potent phospholipidosis inducer; conditions: 24 h
Calu-3 [19] = assay: relative viability EC50 (midpoint between 100% and the lowest measured viability); higher = less toxic; conditions: 72 h
Calu-3 [20] = assay: cell viability relative to DMSO; higher = less toxic; conditions: 72 h

Question: For `CN1C2C=C(c3sccc3Br)CC1CC2` (stereo not drawn) [NS-3861], which SARS-CoV-2 infection rate ([1]; 0.3 µM) is on record?
Answer: 97%

Question: What about the SARS-CoV-2 infection rate ([1]; 3 µM) of the same compound?
Answer: 83%

Question: And the SARS-CoV-2 infection rate ([1]; 10 µM)?
Answer: 75%

Question: What about the SARS-CoV-2 infection rate ([1]; 30 µM) of the same compound?
Answer: 41%

Question: And the drug sensitivity score (U2OS [2])?
Answer: 0

Question: And the drug sensitivity score (HepG2 [3])?
Answer: 0.3

Question: And the drug sensitivity score (Vero E6 [4])?
Answer: 0

Question: What about the drug sensitivity score (Caco-2 [5]) of the same compound?
Answer: 0

Question: And the “relative viability EC50” value (U2OS [6])?
Answer: > 10 µM

Question: What about the “relative viability EC50” value (HepG2 [7]) of the same compound?
Answer: > 10 µM

Question: And the “relative viability EC50” value (Vero E6 [8])?
Answer: > 10 µM

Question: And the “relative viability EC50” value (Caco-2 [9])?
Answer: > 10 µM

Question: What about the drug-induced phospholipidosis (A549-ACE2 [10]; 0.3 µM, 24 h) of the same compound?
Answer: 1.11%

Question: And the drug-induced phospholipidosis (A549-ACE2 [10]; 0.3 µM, 48 h)?
Answer: 2.52%

Question: What about the drug-induced phospholipidosis (A549-ACE2 [10]; 0.3 µM, 72 h) of the same compound?
Answer: 4.83%

Question: What about the drug-induced phospholipidosis (A549-ACE2 [10]; 0.833333 µM, 24 h) of the same compound?
Answer: -3.88%

Question: And the drug-induced phospholipidosis (A549-ACE2 [10]; 0.833333 µM, 48 h)?
Answer: -3.07%

Question: What about the drug-induced phospholipidosis (A549-ACE2 [10]; 0.833333 µM, 72 h) of the same compound?
Answer: -2.54%

Question: What about the drug-induced phospholipidosis (A549-ACE2 [10]; 3.33333 µM, 24 h) of the same compound?
Answer: -0.69%

Question: What about the drug-induced phospholipidosis (A549-ACE2 [10]; 3.33333 µM, 48 h) of the same compound?
Answer: -1.18%

Question: And the drug-induced phospholipidosis (A549-ACE2 [10]; 3.33333 µM, 72 h)?
Answer: -0.115%

Question: And the drug-induced phospholipidosis (A549-ACE2 [10]; 6.66667 µM, 24 h)?
Answer: -1.21%

Question: And the drug-induced phospholipidosis (A549-ACE2 [10]; 6.66667 µM, 48 h)?
Answer: -0.52%

Question: And the drug-induced phospholipidosis (A549-ACE2 [10]; 6.66667 µM, 72 h)?
Answer: 0.151%

Question: What about the drug-induced phospholipidosis (A549-ACE2 [10]; 10 µM, 24 h) of the same compound?
Answer: 2.15%

Question: What about the drug-induced phospholipidosis (A549-ACE2 [10]; 10 µM, 48 h) of the same compound?
Answer: -0.04%

Question: And the drug-induced phospholipidosis (A549-ACE2 [10]; 10 µM, 72 h)?
Answer: 0.487%

Question: And the drug-induced phospholipidosis (A549-ACE2 [10]; 30 µM, 24 h)?
Answer: 14.7%

Question: And the drug-induced phospholipidosis (A549-ACE2 [10]; 30 µM, 48 h)?
Answer: 12.8%

Question: What about the drug-induced phospholipidosis (A549-ACE2 [10]; 30 µM, 72 h) of the same compound?
Answer: 12.9%

Question: And the cell viability (U2OS [11]; 1 nM)?
Answer: 97.6%

Question: What about the cell viability (U2OS [11]; 10 nM) of the same compound?
Answer: 101%

Question: And the cell viability (U2OS [11]; 100 nM)?
Answer: 95.3%

Question: What about the cell viability (U2OS [11]; 1000 nM) of the same compound?
Answer: 100%

Question: And the cell viability (U2OS [11]; 10000 nM)?
Answer: 94.6%

Question: And the cell viability (HepG2 [12]; 1 nM)?
Answer: 107%

Question: What about the cell viability (HepG2 [12]; 10 nM) of the same compound?
Answer: 107%

Question: And the cell viability (HepG2 [12]; 100 nM)?
Answer: 97.2%

Question: And the cell viability (HepG2 [12]; 1000 nM)?
Answer: 89.2%

Question: And the cell viability (HepG2 [12]; 10000 nM)?
Answer: 92.5%

Question: What about the cell viability (Vero E6 [13]; 1 nM) of the same compound?
Answer: 98.9%

Question: What about the cell viability (Vero E6 [13]; 10 nM) of the same compound?
Answer: 99.5%

Question: What about the cell viability (Vero E6 [13]; 100 nM) of the same compound?
Answer: 99%

Question: What about the cell viability (Vero E6 [13]; 1000 nM) of the same compound?
Answer: 96.7%

Question: What about the cell viability (Vero E6 [13]; 10000 nM) of the same compound?
Answer: 97.2%

Question: What about the cell viability (Caco-2 [14]; 1 nM) of the same compound?
Answer: 101%

Question: What about the cell viability (Caco-2 [14]; 10 nM) of the same compound?
Answer: 103%

Question: What about the cell viability (Caco-2 [14]; 100 nM) of the same compound?
Answer: 92.4%

Question: What about the cell viability (Caco-2 [14]; 1000 nM) of the same compound?
Answer: 106%

Question: What about the cell viability (Caco-2 [14]; 10000 nM) of the same compound?
Answer: 101%

Question: And the morphology score ([15]; 0.3 µM)?
Answer: 0

Question: And the morphology score ([15]; 3 µM)?
Answer: 0.45

Question: And the morphology score ([15]; 10 µM)?
Answer: 0.4

Question: What about the morphology score ([15]; 30 µM) of the same compound?
Answer: 0.77

Question: And the cell count ([16]; 0.3 µM)?
Answer: 99%

Question: And the cell count ([16]; 3 µM)?
Answer: 109%

Question: And the cell count ([16]; 10 µM)?
Answer: 104%

Question: What about the cell count ([16]; 30 µM) of the same compound?
Answer: 113%

Question: For `COc1cc(C(=O)NC2CCN(C)CC2)c(F)cc1Nc1ncc2c(n1)N(C1CCCC1)CC(F)(F)C(=O)N2C` [TAK-960], which drug sensitivity score (U2OS [2]) is on record?
Answer: 12.5

Question: What about the drug sensitivity score (HepG2 [3]) of the same compound?
Answer: 21.8

Question: What about the drug sensitivity score (Vero E6 [4]) of the same compound?
Answer: 12.5

Question: What about the drug sensitivity score (Calu-3 [17]) of the same compound?
Answer: 4.3

Question: And the drug sensitivity score (Caco-2 [5])?
Answer: 10.9

Question: What about the morphology score ([15]; 0.1 µM) of the same compound?
Answer: -0.06

Question: And the morphology score ([15]; 0.3 µM)?
Answer: -0.01

Question: And the morphology score ([15]; 1 µM)?
Answer: 0.15

Question: What about the morphology score ([15]; 3 µM) of the same compound?
Answer: 0.58

Question: And the “phospholipidosis EC50” value (A549-ACE2 [18])?
Answer: 3.2 µM

Question: How did the drug sensitivity score (U2OS [2]) turn out when `CC(=O)OC[C@H]1O[C@@](COC(C)=O)(O[C@H]2O[C@H](COC(C)=O)[C@@H](OC(C)=O)[C@H](OC(C)=O)[C@H]2OC(C)=O)[C@@H](OC(C)=O)[C@@H]1OC(C)=O` [sucrose-octaacetate] was run?
Answer: 0

Question: And the drug sensitivity score (HepG2 [3])?
Answer: 0

Question: What about the drug sensitivity score (Vero E6 [4]) of the same compound?
Answer: 0

Question: And the drug sensitivity score (Calu-3 [17])?
Answer: 0

Question: And the drug sensitivity score (Caco-2 [5])?
Answer: 0

Question: What about the “relative viability EC50” value (U2OS [6]) of the same compound?
Answer: > 10 µM

Question: And the “relative viability EC50” value (HepG2 [7])?
Answer: > 10 µM

Question: What about the “relative viability EC50” value (Vero E6 [8]) of the same compound?
Answer: > 10 µM

Question: What about the “relative viability EC50” value (Calu-3 [19]) of the same compound?
Answer: > 10 µM

Question: And the “relative viability EC50” value (Caco-2 [9])?
Answer: > 10 µM

Question: What about the cell viability (U2OS [11]; 1 nM) of the same compound?
Answer: 95.1%

Question: What about the cell viability (U2OS [11]; 10 nM) of the same compound?
Answer: 89.6%

Question: And the cell viability (U2OS [11]; 100 nM)?
Answer: 97.7%

Question: What about the cell viability (U2OS [11]; 1000 nM) of the same compound?
Answer: 102%

Question: What about the cell viability (U2OS [11]; 10000 nM) of the same compound?
Answer: 102%

Question: And the cell viability (HepG2 [12]; 1 nM)?
Answer: 93%

Question: And the cell viability (HepG2 [12]; 10 nM)?
Answer: 100%

Question: What about the cell viability (HepG2 [12]; 100 nM) of the same compound?
Answer: 102%

Question: And the cell viability (HepG2 [12]; 1000 nM)?
Answer: 103%

Question: What about the cell viability (HepG2 [12]; 10000 nM) of the same compound?
Answer: 109%

Question: What about the cell viability (Vero E6 [13]; 1 nM) of the same compound?
Answer: 98.5%

Question: What about the cell viability (Vero E6 [13]; 10 nM) of the same compound?
Answer: 100%

Question: What about the cell viability (Vero E6 [13]; 100 nM) of the same compound?
Answer: 94.1%

Question: What about the cell viability (Vero E6 [13]; 1000 nM) of the same compound?
Answer: 94.6%

Question: What about the cell viability (Vero E6 [13]; 10000 nM) of the same compound?
Answer: 110%

Question: What about the cell viability (Calu-3 [20]; 1 nM) of the same compound?
Answer: 102%

Question: And the cell viability (Calu-3 [20]; 10 nM)?
Answer: 96.3%

Question: And the cell viability (Calu-3 [20]; 100 nM)?
Answer: 99%

Question: What about the cell viability (Calu-3 [20]; 1000 nM) of the same compound?
Answer: 103%

Question: What about the cell viability (Calu-3 [20]; 10000 nM) of the same compound?
Answer: 108%

Question: What about the cell viability (Caco-2 [14]; 1 nM) of the same compound?
Answer: 102%

Question: What about the cell viability (Caco-2 [14]; 10 nM) of the same compound?
Answer: 99.6%

Question: And the cell viability (Caco-2 [14]; 100 nM)?
Answer: 97%

Question: What about the cell viability (Caco-2 [14]; 1000 nM) of the same compound?
Answer: 93%

Question: What about the cell viability (Caco-2 [14]; 10000 nM) of the same compound?
Answer: 98.4%
